Source: article PMC6754133 (PLoS ONE, 2019)
Where two headings read alike, the source gives them in different places. One block for each molecule: values may come before it.

Legend:
[1] = molecular target: T1, SMO (Mus musculus, UniProt P56726); assay: Competitive functional inhibition assay against SAG, Gli-Luciferase, NIH 3T3 Gli-RE cells; type: cell-based; conditions: read-out: EC50 of SAG (printed as IC50 in Fig 5c); SAG alone
T1 construct: host or cells: NIH 3T3 Gli-RE
Experimental: After 24 hours, when the cells reached confluency, the culture medium was replaced with 80 μL per well of assay medium [Optimem ± 10 mM HEPES ± 1 mM Sodium Pyruvate + 1× MEM NEAA]. […] Following incubation of the plate for at least 28 hours at 37°C, the cells were simultaneously lysed and supplemented with a luciferase substrate by addition of equal volume of Steady-Glo reagent (Promega, E2520) directly to the assay media. Plates were mixed by pipetting, centrifuged to eliminate foam, incubated for 10 minutes, and analyzed using Perkin Elmer Viktor X luminescence plate reader. The results were analyzed using a non-linear regression (Prism 6, GraphPad Software, La Jolla, CA). Data were normalized to the maximal response observed for ShhN-stimulated cells in the same experiment. A sigmoidal-dose response curve was used as a model for data analysis and IC50 value calculation.

[2] = molecular target: T1, SMO; conditions: literature value, cited from earlier work; for IC50: read-out: Gli-RE-luciferase assay IC50
[3] = system: firefly luciferase under control of cAMP response element (CRE); assay: CRE-luciferase counter assay in HEK293s cells; type: cell-based; conditions: different concentrations
Experimental: (a) The drugs were tested at different concentrations in HEK293s cells stably transfected with firefly luciferase under control of cAMP response element (CRE) (pGL4.29[luc2P/CRE/Hygro], Promega). […] Raw, non-normalized luminescence values are presented, to facilitate the assessment of the extent of inhibition. Shown is a single representative experiment out of the multiple experiments performed on different days. (Mean ± SD)

[4] = system: nuclear Gli-1 in DAOY cells; assay: Western blot quantitation of nuclear Gli-1; type: cell-based, human; conditions: NS conditions, 24-hour treatment, 5 μM (Fig 6f, S4 Fig)
Experimental: (§1) Nuclear fractions were prepared from cell pellets according to the method of Schreiber et. al.[81] with minor modifications. […] After 24 hours, cells were lifted from the wells by pipetting, transferred to 1.5 mL Eppendorf tubes, centrifuged at 10,000 x g for 1 minutes at 4°C, and washed once in PBS. Following supernatant removal by vacuum, cells were lysed using a plasma membrane lysis buffer [10 mM HEPES; pH 7.5, 10 mM KCl, 0.1 mM EDTA, 1 mM dithiothreitol (DTT), 0.5% Nonidet P‐40 and 0.5 mM PMSF along with 1× protease inhibitor cocktail (Sigma)] and allowed to swell on ice for 15‐20 min with intermittent mixing. Next, tubes were vortexed to disrupt cell membranes and then centrifuged at 12,000 × g at 4°C for 10 min. […] The pelleted nuclei were washed with the plasma membrane lysis buffer and re-suspended in the nuclear extraction buffer [20 mM HEPES (pH 7.5), 400 mM NaCl, 1 mM EDTA, 1 mM DTT, 1 mM PMSF with 1× protease inhibitor cocktail] and incubated on ice for 30 min. The tubes were centrifuged at 12,000 ×g for 25 min at 4°C and the supernatant (now containing the soluble fraction of the cell nuclei) was collected. Total protein concentrations were determined using the Bio-Rad Protein Assay (Bio-Rad, Hercules, CA). Nuclear extracts containing the total of 40 μg protein were separated on a 10% Tris-SDS PAGE gel (Bio-Rad Mini-PROTEAN® TGX). Gels were transferred on nitrocellulose membranes using Bio-Rad TransBlot system, after which the membranes were blocked in the blocking buffer [5% nonfat dry milk in 1× Tris Buffer Saline + 0.1% Tween 20 (TBST)] for 2 hours at room temperature. Following blocking, the membranes were washed four times with TBST (5 minutes gentle rocking per wash) and incubated overnight with primary antibody Rabbit anti-Gli-1 (Cell signaling, #C68H3); 1:250 dilution in TBST-Milk at 4°C with gentle rocking. Membranes were washed three times with TBST for 5 min each.

[5] = system: nuclear Gli-1 in MB-PDX cells; assay: Western blot quantitation of nuclear Gli-1; type: cell-based, human; conditions: NS conditions, 24-hour treatment, 5 μM (Fig 6f, S4 Fig)
Experimental: as §1

[6] = system: DAOY cells; assay: Neurosphere formation assay; type: cell-based, human; conditions: DAOY, 10 μM, at least 7 days, 1–2 cells per well
Experimental: (§2) The final concentration of test compounds in the wells was 10 μM. Cells were incubated at 37 °C for at least seven days. After incubation percent of wells positive with neural stem cell-derived sphere colonies were calculated for each test condition and compared.

[7] = system: MB-PDX cells; assay: Neurosphere formation assay; type: cell-based, human; conditions: MB-PDX, 10 μM, at least 7 days, 1–2 cells per well
Experimental: as §2

[8] = system: Hh/SMO pathway; assay: Gli-Luciferase functional assay, NIH 3T3 Gli-RE cells stimulated with ShhN; type: cell-based; conditions: for Span of concentration response curve: data as percent of the maximum luminescence in the absence of antagonists, Fig 4; for Inhibition of ShhN-induced Hh signaling (in words): NIH 3T3 Gli-RE cells, ShhN stimulated
Experimental: After 24 hours, when the cells reached confluency, the culture medium was replaced with 80 μL per well of assay medium [Optimem ± 10 mM HEPES ± 1 mM Sodium Pyruvate + 1× MEM NEAA]. […] Then the cells were stimulated by addition of either ShhN-conditioned media or control media (DMEM±10%BCS) at a final concentration of 10%. Following incubation of the plate for at least 28 hours at 37°C, the cells were simultaneously lysed and supplemented with a luciferase substrate by addition of equal volume of Steady-Glo reagent (Promega, E2520) directly to the assay media. Plates were mixed by pipetting, centrifuged to eliminate foam, incubated for 10 minutes, and analyzed using Perkin Elmer Viktor X luminescence plate reader. The results were analyzed using a non-linear regression (Prism 6, GraphPad Software, La Jolla, CA). Data were normalized to the maximal response observed for ShhN-stimulated cells in the same experiment. A sigmoidal-dose response curve was used as a model for data analysis and IC50 value calculation.

[9] = system: MB-PDX cells; assay: cells; conditions: Homo sapiens, 72 h, read-out: Cell viability assay IC50
[10] = molecular target: T2, mSMO (Mus musculus, UniProt P56726); assay: BODIPY-Cyclopamine competition binding assay, flow cytometry, HEK293T cells transiently transfected with mSMO; conditions: BODIPY-Cyclopamine 5 nM
T2 construct: host or cells: HEK293T
T2 sequence (P56726 33-793): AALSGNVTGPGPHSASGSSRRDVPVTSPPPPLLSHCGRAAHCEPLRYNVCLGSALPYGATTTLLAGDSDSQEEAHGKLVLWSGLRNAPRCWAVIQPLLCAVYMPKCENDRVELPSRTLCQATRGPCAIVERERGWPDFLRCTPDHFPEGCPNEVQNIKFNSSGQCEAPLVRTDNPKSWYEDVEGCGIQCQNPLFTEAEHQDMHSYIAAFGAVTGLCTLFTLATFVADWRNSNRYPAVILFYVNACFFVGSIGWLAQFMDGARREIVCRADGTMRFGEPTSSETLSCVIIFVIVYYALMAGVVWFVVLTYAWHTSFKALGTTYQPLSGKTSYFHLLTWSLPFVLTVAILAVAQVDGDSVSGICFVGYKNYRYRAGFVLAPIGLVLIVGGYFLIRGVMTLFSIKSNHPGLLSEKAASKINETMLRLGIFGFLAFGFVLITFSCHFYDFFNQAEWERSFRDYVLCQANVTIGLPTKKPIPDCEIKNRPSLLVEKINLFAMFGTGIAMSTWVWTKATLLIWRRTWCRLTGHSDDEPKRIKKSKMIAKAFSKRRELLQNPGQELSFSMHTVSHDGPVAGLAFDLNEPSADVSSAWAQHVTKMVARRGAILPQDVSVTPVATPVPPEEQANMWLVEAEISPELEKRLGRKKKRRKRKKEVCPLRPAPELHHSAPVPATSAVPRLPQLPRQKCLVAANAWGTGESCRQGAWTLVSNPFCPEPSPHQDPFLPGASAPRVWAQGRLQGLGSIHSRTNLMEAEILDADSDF
Experimental: Prior to transfection, cell culture media was replaced with DMEM + 10%FBS for mSMO transfection and with DMEM + 10%BCS for ShhN transfection. The transfected dish was incubated for approximately 24 hours at 37°C. For the production of ShhN conditioned medium, the culture medium from ShhN-transfected HEK293T cells was collected, aliquoted in single use 1.5 mL Eppendorf tubes and either used fresh or stored at -20°C.
HEK293T cells transiently transfected with mSMO were lifted with trypsin (0.25%) and replated at 6×10^4 cells in 80 μL DMEM + 10%FBS per well in a 96 well tissue-culture treated plate (Falcon, 353219). The plate was incubated at 37°C for 24 hours. Serial dilutions of test compounds (10x final concentrations) were prepared in culture media. 10 μL of diluted compounds or control media were added to the plate after which the plate was incubated at 37°C for 10 min. […] Following at least 1.5 hours incubation at 37°C in 5% CO2, cells were lifted by vigorous pipetting, transferred to conical bottom 96-well plates, and centrifuged at 400 × g for 5 min at 4°C. Supernatant was discarded, cells were re-suspended in 300 μL of PBS + 0.5% BSA (freshly prepared), and the plate was analyzed with Guava benchtop flow cytometer. The results were interpreted with FlowJo software (version v10.1). Dose response curves were constructed in Prism 6 (GraphPad Software, La Jolla, CA).

[11] = system: DAOY cells; assay: cells; conditions: Homo sapiens, 72 h, read-out: Cell viability assay IC50
[12] = system: MB-PDX and DAOY cells; assay: alamarBlue cell viability assay, adherent versus NS conditions; type: cell-based, human
Experimental: The results were analyzed using a non-linear regression (Prism 6, GraphPad Software, La Jolla, CA).

[13] = system: Mast/stem cell growth factor receptor Kit (KIT_HUMAN); set-up: method as in earlier work; conditions: S2/S3 Table; ref [1] Davis MI et al., Nat Biotechnol. 2011; cited from earlier work
[14] = system: Platelet-derived growth factor receptor alpha (PGFRA_HUMAN); set-up: method as in earlier work; conditions: S2/S3 Table; ref [1] Davis MI et al., Nat Biotechnol. 2011; cited from earlier work
[15] = system: Platelet-derived growth factor receptor beta (PGFRB_HUMAN); set-up: method as in earlier work; conditions: S2/S3 Table; ref [1] Davis MI et al., Nat Biotechnol. 2011; cited from earlier work
[16] = system: MB-PDX and DAOY cells; assay: Cell viability with and without Vismodegib (0.5 uM), alamar blue; type: cell-based, human; conditions: with 0.5 μM Vismodegib, 72 hours
Experimental: S6 Figure: Cell viability in Medulloblastoma Cells (MB-PDX and DAOY) [n=3]. […] The cell viability was measured after 72 hours of treatment using alamar blue. (Mean ± SD)

[17] = Mus musculus, NIH3T3, NIH3T3 Gli-RE cells, ShhN-conditioned media, n = 3, read-out: Hh/SMO pathway inhibition IC50
[18] = NIH3T3 Gli-RE cells, ShhN-conditioned media, n = 3, read-out: Hh/SMO pathway inhibition IC50

T1 sequence (P56726 33-793): as above

EC50 [1]: 79 nM
SMILES: CNC1CCC(N(Cc2cccc(-c3ccncc3)c2)C(=O)c2sc3ccccc3c2Cl)CC1 (centres unmarked) [SAG]
EC50 ([2]; read-out: Gli-RE-luciferase assay EC50 (for SAG the value is EC50 not IC50), agonist): 3 nM

SMILES: Cc1nn(-c2ccccc2)c(C)c1/C=N/N1CCN(Cc2ccccc2)CC1 [SANT-1]
IC50 [2]: 20 nM

IC50 [8, 17]: 4.08 nM
IC50 [8, 18]: 4 nM
SMILES: CS(=O)(=O)c1ccc(C(=O)Nc2ccc(Cl)c(-c3ccccn3)c2)c(Cl)c1 [Vismodegib]
Effect on CRE-driven luciferase activity (independent of SMO) [3]: lack of dose-dependent effect
Nuclear Gli-1, mean, % of untreated samples [4]: 75%
Nuclear Gli-1, mean, % of untreated samples [5]: 67%
Inhibition of NS formation, wells [6]: ineffective
Inhibition of NS formation, wells [7]: ineffective
IC50 [9]: 52 µM

SMILES: CC1=C2C[C@H]3[C@@H](CC=C4C[C@@H](O)CC[C@@]43C)[C@@H]2CC[C@]12O[C@@H]1C[C@H](C)CN[C@H]1[C@H]2C [Cyclopamine]
IC50 ([8]; Mus musculus, NIH3T3, read-out: Hh/SMO pathway inhibition IC50, NIH3T3 Gli-RE cells, ShhN-conditioned media, n = 3): 189 nM
Span of concentration response curve [8]: 105.7
IC50 ([8]; read-out: Hh/SMO pathway inhibition IC50, NIH3T3 Gli-RE cells, ShhN-conditioned media, n = 3): 189 nM

SMILES: CC1=C2C[C@H]3[C@@H](CC[C@@H]4C[C@H](NS(C)(=O)=O)CC[C@@]43C)[C@@H]2CC[C@@]2(C1)O[C@@H]1C[C@H](C)CN[C@H]1[C@H]2C [Saridegib]
IC50 [2]: 9 nM

Displacement of BODIPY-Cyclopamine from SMO (in words) [10]: no effect
SMILES: O=C1CCC(N2C(=O)c3ccccc3C2=O)C(=O)N1 (centres unmarked) [Thalidomide]
Inhibition of ShhN-induced Hh signaling (in words) [8]: inactive
Span of concentration response curve [8]: -12.85

SMILES: CN(C(=O)c1ccc(F)cc1C(F)(F)F)C1CCN(c2nnc(-c3ccnn3C)c3ccccc23)CC1 [Taladegib (LY2940680), Taladegib]
IC50 [2]: 2.6 nM

SMILES: Cc1c(C(=O)Nc2ccc(N3C[C@@H](C)O[C@@H](C)C3)nc2)cccc1-c1ccc(OC(F)(F)F)cc1 [Sonidegib (NVP-LDE225), Sonidegib]
IC50 [2]: 2.5 nM

SMILES: C#Cc1cccc(Nc2ncnc3cc(OCCOC)c(OCCOC)cc23)c1 [Erlotinib]
Inhibition of NS formation, wells [6]: ineffective
IC50 [11]: 11 µM
Inhibition of NS formation, wells [7]: ineffective
Effect on cell viability (in words) [12]: did not affect cell viability under any condition

Displacement of BODIPY-Cyclopamine from SMO (in words) [10]: no effect
SMILES: CS(=O)(=O)Nc1ccc([N+](=O)[O-])cc1Oc1ccccc1 [Nimesulide]
Inhibition of ShhN-induced Hh signaling (in words) [8]: inactive
Span of concentration response curve [8]: -3.874

SMILES: Cc1ccc(NC(=O)c2ccc(CN3CCN(C)CC3)cc2)cc1Nc1nccc(-c2cccnc2)n1 [Imatinib]
Effect on CRE-driven luciferase activity (independent of SMO) [3]: lack of dose-dependent effect
Kd/Ki Value [13]: 13 nM
Inhibition of NS formation, wells [6]: less potent
Kd/Ki Value [14]: 31 nM
Inhibition of NS formation, wells [7]: less potent
Inhibition of ShhN-induced Hh signaling (in words) [8]: inhibited ShhN-induced Hh signaling in a dose-dependent manner
Kd/Ki Value [15]: 14 nM
Change of efficacy in cell viability assay in the presence of Vismodegib [16]: improvement in efficacy

SMILES: Cc1csc(CN[C@@H]2Cc3ccc(NC(=O)c4cccc(C)c4-c4ccc(C(F)(F)F)cc4)cc3C2)n1 [23b_ NV, 3-methyl-N-[(2R)-2-[(4-methyl-1,3-thiazol-2-yl)methylamino]-2,3-dihydro-1H-inden-5-yl]-2-[4-(trifluoromethyl)phenyl]benzamide]
IC50 [2]: 17 nM

SMILES: C[C@@]12CN(C(=O)Nc3ccnn3-c3ccccc3)CCN1C(=O)N([C@H]1C[C@@H]1c1ccccc1)C2=O [MK_5710, (8aS)-8a-methyl-1,3-dioxo-2-[(1S,2R)-2-phenylcyclopropyl]-N-(1-phenyl-1H-pyrazol-5-yl)hexahydroimid azo[1,5-a]pyrazine-7(1H)-carboxamide]
IC50 [2]: 17 nM

SMILES: CNCc1ccc(C)c(NC(=O)c2ccc(Nc3nc(-c4ccccc4)c4ccccc4n3)cc2)c1 [BMS_833923]
IC50 [2]: 6 to 35 nM

SMILES: CCC(C)n1ncn(-c2ccc(N3CCN(c4ccc(OCC5COC(Cn6cncn6)(c6ccc(Cl)cc6Cl)O5)cc4)CC3)cc2)c1=O (centres unmarked) [Itraconazole]
IC50 [2]: 800 nM

IC50 [8, 17]: 327 nM
IC50 [8, 18]: 328 nM
Displacement of BODIPY-Cyclopamine from SMO (in words) [10]: no effect
SMILES: COC(=O)Nc1nc2ccc(C(=O)c3ccccc3)cc2[nH]1 [Mebendazole]
Inhibition of ShhN-induced Hh signaling (in words) [8]: inhibited ShhN-induced Hh signaling in a dose-dependent manner
Span of concentration response curve [8]: 108.1
